In general, Tmax refers to the time from dosing to the highest level. By Cmax is commonly meant the highest concentration seen after dosing.

The source of these data is article PMC3242598, “Phase I study of BIBF 1120 with docetaxel and prednisone in metastatic chemo-naive hormone-refractory prostate cancer patients” (British Journal of Cancer, 2011).

Like-named read-outs stand apart in the source and are kept apart here.

In one series the test system is HRPC. The note with it: cited from earlier work.
The nature of series [1]: Plasma pharmacokinetics of docetaxel (HPLC-MS/MS). The class given is in vivo. The note with it: human, docetaxel 75 mg m^−2 IV + BIBF 1120 250 mg BID; for half-life: read-out: t1/2, gMean (gCV%) (converted); for Tmax / AUC(0-inf) / Cmax: iv; for Tmax: read-out: tmax, median and range; for AUC(0-inf): read-out: AUC0−∞, gMean (gCV%); for Cmax: read-out: Cmax, gMean (gCV%). On the procedure: Peripheral blood was collected on days 1, 2, 3, 8, and 15 of TCs 1 and 2, and on days 2 and 15 of TCs 3–6 to perform the PK/pharmacodynamic (PD) analysis. Plasma concentrations of BIBF 1120 were determined after the first dose over the time interval 0–24 h on day 2 of TCs 1 and 2 to investigate single-dose PK characteristics of BIBF 1120 on the day after administration of single doses of docetaxel. Levels of BIBF 1120 were also determined on days 8 and 15 of TCs 1 and 2 to investigate steady-state levels.
Plasma concentrations of BIBF 1120 and docetaxel were analysed by a validated method using high-performance liquid chromatography coupled with tandem mass spectrometry (HPLC-MS/MS) in the Department of Drug Metabolism and Pharmacokinetics (Boehringer Ingelheim Pharma GmbH & Co KG, Biberach, Germany). The assay comprises sample clean-up by automated solid-phase extraction in a 96-well plate format. Chromatography was achieved on an analytical C18 reversed phase HPLC column with gradient elution. The substance was detected and quantified by HPLC-MS/MS using electrospray ionisation in the positive ion mode. Docetaxel was analysed by HPLC-MS/MS using paclitaxel as an internal standard. The assay comprises sample clean-up by liquid–liquid extraction and chromatography on an analytical C18 reversed phase HPLC column with isocratic elution. […] The lower limit of quantification for BIBF 1120 and metabolites was 0.5 ng ml^−1 plasma, using a plasma volume of 200 μl. For docetaxel, the lower limit was 2.5 ng ml^−1 plasma, using a plasma volume of 100 μl.
The calculated parameters were plasmatic peak concentrations following the first dose (Cmax), half-life time (t1/2), area under the plasma concentration–time curve (AUCt), apparent clearance after oral administration, and apparent volume of distribution during the terminal phase.

With `CC(=O)O[C@@]12CO[C@@H]1C[C@H](O)[C@@]1(C)C(=O)[C@H](O)C3=C(C)[C@@H](OC(=O)[C@H](O)[C@@H](NC(=O)OC(C)(C)C)c4ccccc4)C[C@@](O)([C@@H](OC(=O)c4ccccc4)[C@H]21)C3(C)C` [docetaxel], the PSA responses in the series on HRPC (docetaxel monotherapy or with estramustine, phase III, first-line metastatic HRPC, ref Petrylak et al, 2004, Tannock et al) is 45–50%. For the same compound, in the series with HRPC (docetaxel with corticosteroid in HRPC, ref Petrylak et al, 2004, Tannock et al, Berthold et al, 2008), the Median survival is less than 20 months. The half-life in series [1] (treatment cycle 2 (n=12)) was 19.4 h; in series [1] (male, treatment cycle 1 (n=12)), 20.2 h. The values for the Tmax in series [1] (treatment cycle 1 (n=12)) and in series [1] (treatment cycle 2 (n=12)) were 1.02 h and 1.01 h, respectively. The AUC(0-inf) in series [1] (male, treatment cycle 1 (n=12)) stood at 1860 ng·h/mL; in series [1] (male, treatment cycle 2 (n=12)), 2460 ng·h/mL. For the same compound, the peak concentration (Cmax) in series [1] (male, treatment cycle 1 (n=12)) was found to be 1510 ng/mL; in series [1] (male, treatment cycle 2 (n=12)), 1980 ng/mL.

For the compound `CCN(CC)CCNC(=O)c1c(C)[nH]c(/C=C2\C(=O)Nc3ccc(F)cc32)c1C` [sunitinib], the PSA response rates with HRPC (HRPC patients, ref Chi et al, 2008, Dror Michaelson et al, 2009, Sonpavde et al, 2010) was 3.6–12.1%.
